# Results: patent publication US7126676B2, “Spectral analysis of light scattered from clotting blood” (priority 2002, dated 2006)
# Read-outs that look alike come from different tables or passages of the source.
# Columns and labels:
# [1] = tested on: clotting native whole blood; conditions: for Ratio of Post-treatment to Pre-treatment Value of Logistic Parameter B: two hours after ingestion, same subject
# [2] = tested on: clotting; conditions: cited from earlier work
# [3] = rofecoxib-treated arm compared with naproxen; cited from earlier work
structure (smiles),measurement,setting,value
CC(=O)Oc1ccccc1C(=O)O [Aspirin],Ratio of Post-treatment to Pre-treatment Value of Logistic Parameter B,"[1]; 470 nm, Aspirin 325 mg single dose",4.48
same,Ratio of Post-treatment to Pre-treatment Value of Logistic Parameter B,"[1]; 550 nm, Aspirin 325 mg single dose",1.45
same,Ratio of Post-treatment to Pre-treatment Value of Logistic Parameter B,"[1]; 610 nm, Aspirin 325 mg single dose",2.18
same,Ratio of Post-treatment to Pre-treatment Value of Logistic Parameter B,"[1]; 700 nm, Aspirin 325 mg single dose",1.85
Cc1ccc(-c2cc(C(F)(F)F)nn2-c2ccc(S(N)(=O)=O)cc2)cc1 [Celecoxib],Ratio of Post-treatment to Pre-treatment Value of Logistic Parameter B,"[1]; 470 nm, Celecoxib 400 mg single dose",0.087
same,Ratio of Post-treatment to Pre-treatment Value of Logistic Parameter B,"[1]; 550 nm, Celecoxib 400 mg single dose",0.154
same,Ratio of Post-treatment to Pre-treatment Value of Logistic Parameter B,"[1]; 610 nm, Celecoxib 400 mg single dose",0.055
same,Ratio of Post-treatment to Pre-treatment Value of Logistic Parameter B,"[1]; 700 nm, Celecoxib 400 mg single dose",0.107
COc1ccc2cc([C@H](C)C(=O)O)ccc2c1 [Naproxen],Ratio of Post-treatment to Pre-treatment Value of Logistic Parameter B,"[1]; 470 nm, Naproxen 600 mg single dose",1.63
same,Ratio of Post-treatment to Pre-treatment Value of Logistic Parameter B,"[1]; 550 nm, Naproxen 600 mg single dose",0.03
same,Ratio of Post-treatment to Pre-treatment Value of Logistic Parameter B,"[1]; 610 nm, Naproxen 600 mg single dose",0.34
same,Ratio of Post-treatment to Pre-treatment Value of Logistic Parameter B,"[1]; 700 nm, Naproxen 600 mg single dose",0.28
same,"Effect on clotting as determined by the invention, in words",[1]; at 470 nm,aspirin-like effect
same,"Effect on clotting as determined by the invention, in words","[1]; at the other wavelengths (550, 610, 700 nm)",celecoxib-like effect
CS(=O)(=O)c1ccc(C2=C(c3ccccc3)C(=O)OC2)cc1 [rofecoxib],Effect on clotting as measured by routine techniques,[2],Neither rofecoxib nor celecoxib has any effect on clotting
same,Incidence of thrombotic events,[3],higher incidence of thrombotic events
